Test results: publication PMC6222706, “Evaluation of the Antioxidant and Neuroprotectant Activities of New Asymmetrical 1,3-Diketones” (Molecules : A Journal of Synthetic Chemistry and Natural …, 2018)

Tests used:
[1] = Iron chelation capacity (Fe^+2-ferrozine complex); type: biochemical; settings: aqueous media; for Fe^2+ binding capacity: 50 µM compound; for Fe^2+ chelating capacity: 200 µM compound
Experimental: To decrease the level of free Fe^2+ that can reduce H2O2 to the ^•OH radical and produce other ROS, it is worth to evaluate the iron chelation capacity of new potential AOX compounds as potential new therapeutic agents against neurodegenerative diseases. […] In this assay ferrozine form complexes with Fe^+2 in a quantitative manner, and in the presence of chelating compounds this complex is disrupted.
The iron chelation capacity was determined according to the method of Dinis et al., using ferrous chloride instead of ferrous sulfate. In this method, ferrozine can form complexes with a ferrous ion in a quantitative way yielding a red color with maximum absorbance at 562 nm. In the presence of other iron chelators, a decoloration is observed due to the competition with ferrozine for the metal. The assay was carried out in a 96 well plate. Serial dilutions of test compound (0, 5, 10, 25, 50, 100, 150, 200 µM) were dispensed (180 µL) into each well and then 10 µL of FeCl2 1 mM were added (final FeCl2 concentration, […]). After shaking the plate for 1 min, 10 µL of Ferrozine 2 mM were added. The mixture was shaken thoroughly and left to stand for 20 min at room temperature. The absorbance was measured at 562 nm with a Varioskan microplate reader. […] The compound iron chelation activity was calculated as the percentage of inhibition of the Fe^+2-Ferrozine complex by the formula in Equation (3):%Inhibition = {(Ao − As)/Ao} × 100(3) where Ao is the absorbance of the control, and As is the absorbance in the presence of the test compound. EDTA was used as a positive control. All the experiments were performed three times by quadruplicate for each compound concentration.

SH-SY5Y cells = experiment: LDH release assay in H2O2-treated SH-SY5Y cells; type: cell-based, human; settings: compound 5-50 µM for 24 h, then 200 µM H2O2 for 24 h
Experimental: Additionally, the protection effect of 6b and 7b on cell death induced by 200 µM H2O2 was determined by measuring the lactate dehydrogenase (LDH) release in cell culture medium.
SH-SY5Y 96-well plates at a density of 5 × 10^3 cells/well and grown in the incubator for 24 h. Cells were pretreated for 24 h with different compound concentrations (5, 10, 20, 30, 40, 50 µM) and then exposed to 200 µM H2O2 for 24 h. Then, the supernatant was used in the LDH assay and the absorbance measured at 490nm in a Varioskan microplate reader after 30 min, according to the manufacturer’s instructions (LDH Cytotoxicity Assay Kit, Pierce^TM, Thermo Fisher Scientific, Vantaa, Finland). LDH leakage was calculated as the percentage of the control group.

[2] = Cytotoxicity in SH-SY5Y cells (MTT); type: cell-based; settings: human, SH-SY5Y neuronal cells, concentration reducing cell viability to 50% of control
Experimental: So, to study the neuroprotectant potential of β-diketones in the SH-SY5Y cell line, we firstly need to determine their cytotoxicity in the same cellular model. […] In addition to that, within each series, the introduction of a second fluorine atom in the left-hand side phenyl ring decreases also the cytotoxicity.
SH-SY5Y cells were seeded into 96-well plates at a density of 5 × 10^3 cells/well and grown in the incubator for 24 h. All compounds tested were dissolved and eventually further diluted in dimethylsulfoxide (DMSO). After overnight incubation, the cells were treated with different test concentrations (5, 10, 20, 50, 100, 150, 200 µM) in a final volume of 200 µL with four replicates each. […] Cell proliferation or viability was measured using the 3-(4,5-dimethylthiazol-2-yl)-2,5-diphenyl tetrazolium bromide (MTT) assay. After 24 h, 20 µL of MTT (5 mg/mL) was added to each well and the plate was incubated at 37 °C in the dark for 2 h. Supernatants were removed and the formazan crystals were solubilized in DMSO (200 µL/well), under 10 min shaking at room temperature. The reduction of MTT was quantified by absorbance at 570 nm Varioskan microplate reader (Thermo Fisher Scientific, Vantaa, Finland). Effects of the test compounds on cell viability were calculated using cells treated with vehicle as control. The data were subjected to linear regression analysis and the regression lines were plotted for the best fit. The IC50 (inhibition of cell viability) concentrations were calculated using the respective dose-response curves.

[3] = ABTS radical scavenging assay; type: biochemical; settings: for IC50: 30 min incubation, EtOH, absorbance at 734 nm; for ABTS-TEAC100: Trolox Equivalent Antioxidant Capacity vs 100 µM solution of the substance, from ABTS assay
Experimental: ABTS^+ radical was produced by reacting 2,2′-azino-bis-3-ethylbenzthiazoline-6-sulphonic acid (ABTS) 7 mM with K2S2O8 2.45 mM, both reactants dissolved in water, and at the volume ratio of 1:1. The mixture was stored in the dark at room temperature for 16 h. The ABTS^+ solution was diluted to give an absorbance of 0.750 ± 0.025 at 734 nm in EtOH. All the compounds tested were dissolved in EtOH. 150 µL of each compound solution was added to the wells of the 96-well plate, followed by the addition of 50 µL of the ABTS^+ radical solution. Final compound concentrations tested were 0, 5, 10, 20, 50, 100, 150, 200 µM. The absorbance change at 734 nm was recorded after 30 min incubation in the dark, and the percentage of radical scavenging was calculated for each concentration relative to a blank containing no scavenger. The degree of decolorization was calculated as the percentage reduction of absorbance. The ABTS^+ radical scavenging activity was calculated as follows: Percentage ABTS^+ radical scavenging activity = {1 − [As/Ac]} × 100(1) where As is the absorbance of the ABTS^+ radical solution containing samples and Ac the absorbance of the control solution without antioxidant. The percentages of ABTS^+ radical reduced were plotted against compound concentration. Trolox was used as a reference antioxidant. All the assays were carried out three times by quadruplicate for each compound.

[4] = Chemical stability in 10 mM PBS; type: physicochemical; settings: 6b, 7b at 400 µM, curcumin at 50 µM
Experimental: It is also important to know compound integrity at those concentrations used in biological assays, and for that, the chemical stability was determined in 10 mM PBS after 6 h, 24 h and 48 h.
In parallel compound saturation solutions were obtained and filtered from 20 mM compound stock in DMSO. So, 10 µL of 20 mM stock solution were dispensed to 190 µL of PBS 10 mM. The solutions were mixed, shaken in a microplate shaker for two hours, and then 160 µL of each solution were filtered and transferred to a new well plate for UV absorption measure. The compound stability in PBS 10 mM was determined at 24, 48 and 72 h with solutions prepared as those for the compound calibration curve.

IC50 [3] [µM]	Remaining Compound (%) 0 h [4] [%]	Remaining Compound (%) 6 h [4] [%]	Remaining Compound (%) 24 h [4] [%]	Remaining Compound (%) 48 h [4] [%]	SMILES	Fe^2+ binding capacity [1]	Fe^2+ chelating capacity [1]	LDH leakage (SH-SY5Y cells)	IC50 at 24 h [2] [µM]	ABTS-TEAC100 [3]
116 ± 11	100	96.1 ± 0.5	92.2 ± 1.6	90.4 ± 3.0	O=C(/C=C(O)/C=C/c1cc(F)c(O)cc1F)C(F)(F)F [Compound 6b, (3Z,5E)-6-(2,5-difluoro-4-hydroxyphenyl)-1,1,1-trifluoro-4-hydroxyhexa-3,5-dien-2-one]	7–8%	25–26%	reduced the LDH leakage	187 ± 13.2	0.67
70.9 ± 5.8	100	95.7 ± 1.0	90.9 ± 1.2	87.8 ± 2.3	O=C(/C=C(O)/C=C/c1ccc(O)c(F)c1F)C(F)(F)F [Compound 7b, (3Z,5E)-6-(2,3-Difluoro-4-hydroxyphenyl)-1,1,1-trifluoro-4-hydroxyhexa-3,5-dien-2-one]	7–8%	25–26%	reduced the LDH leakage	200 ± 17.1	0.62
